Assay results as given in US11992492B2, “Composition for preventing or treating cellular senescence-associated diseases, containing homoharringtonine as active ingredient” (RESEARCH COOPERATION FOUNDATION OF YEUNGNAM UNIVERSITY, priority 2018, dated 2024).

Experiments:
[1] = test system: human retinal pigmented epithelial cells; assay: CCK-8 analysis and LDH activity analysis in retinal pigmented epithelial cells; assay type: cell-based; conditions: ARPE young and doxorubicin-senescent; FIG. 6D, 6E
Procedure: Young cells (1×10^3 cells/well) or senescent cells (2×10^3 cells/well) were dispensed into a 96-well plate, and cultured overnight in a 37° C., 5% CO2 incubator.
Homoharringtonine, ABT263 and rapamycin were treated at each concentration, and then incubated for 4 days in a 37° C., 5% CO2 incubator. 10 μl of CCK-8 reagent (Dojindo Molecular Technologies Inc., Kumamoto, Japan) was added to each well, and incubated for 2 hours in an incubator. Then, the absorbance was measured at 450 nm using a Microplate reader. The degree of cell survival was expressed as a relative value for the absorbance of the control group treated with only DMSO as 100%.
Cytotoxicity against young and senescent cells was investigated with a lactate dehydrogenase (LDH) activity kit (Dojindo Molecular Technologies Inc.). Young cells (1×10^3 cells/100 μl/well) or senescent cells (2×10^3 cells/100 μl/well) were dispensed into a 96-well plate, and then cultured overnight in a 37° C., 5% CO2 incubator.
Homoharringtonine, ABT263 and rapamycin were treated at each concentration, and then incubated for 4 days in a 37° C., 5% CO2 incubator. […] 50 μl of the LDH reaction stop solution was added, and absorbance was measured at 490 nm using a microplate reader. The level of LDH activity was expressed as a relative value based on the absorbance of the control group treated with only DMSO.

[2] = test system: replicative senescent human fibroblasts; assay: LDH activity analysis (cytotoxicity) in young and replicative senescent human fibroblasts; assay type: cell-based; conditions: young vs replicative senescent fibroblasts; FIG. 2C
Procedure: Cytotoxicity against young and senescent cells was investigated with a lactate dehydrogenase (LDH) activity kit (Dojindo Molecular Technologies Inc.). Young cells (1×10^3 cells/100 μl/well) or senescent cells (2×10^3 cells/100 μl/well) were dispensed into a 96-well plate, and then cultured overnight in a 37° C., 5% CO2 incubator. Homoharringtonine, ABT263 and rapamycin were treated at each concentration, and then incubated for 4 days in a 37° C., 5% CO2 incubator. After transferring the cell culture solution to a 1.5 ml tube, it was centrifuged at 4° C. and 12,000 rpm. 100 μl of the supernatant was dispensed into a 96-well plate, and 100 μl of the LDH measurement solution was added to each well, followed by reaction in a CO2 incubator for 30 minutes. 50 μl of the LDH reaction stop solution was added, and absorbance was measured at 490 nm using a microplate reader. The level of LDH activity was expressed as a relative value based on the absorbance of the control group treated with only DMSO.

## COC(=O)C[C@](O)(CCCC(C)(C)O)C(=O)O[C@@H]1C(OC)=C[C@]23CCCN2CCc2cc4c(cc2[C@H]13)OCO4 [homoharringtonine, Homoharringtonine]
[1]
  senescent cell-specific cytotoxicity (CCK-8 analysis and LDH activity analysis): not induced
[2]
  LDH activity (cytotoxicity): increased only in replicative senescent cells compared to young cells
